Reference: patent US20230172921A1, “LERIGLITAZONE FOR TREATING LUNG INFLAMMATION AND INTERSTITIAL LUNG DISEASE” (Minoryx Therapeutics S.L., priority 2020, published 2023)
Several values for one entry are separate records, joined by “and”; a condition that tells them apart may be missing. Equal entries are not always repeated. Structures can show the parent of a compound that is named as a salt.

Columns and labels:
[1] = test system: LPS induced acute lung injury (ALI) model; experiment: LPS induced acute lung injury model in mouse; assay type: in vivo; conditions: for CD45+ % Decrease vs vehicle / CD45+ Mean / IL-6 % Decrease vs vehicle / IL-6 Mean / IL-12p40 % Decrease vs vehicle / IL-12p40 Mean / IP-10 % Decrease vs vehicle / IP-10 Mean / MIG % Decrease vs vehicle / MIG Mean / Neutrophils % Decrease vs vehicle / Neutrophils Mean / RANTES % Decrease vs vehicle / RANTES Mean / T cells % Decrease vs vehicle / T cells Mean / TNF % Decrease vs vehicle / TNF Mean / Total Protein in BALF % Decrease vs vehicle / Total Protein in BALF Mean: BALF Day 3; for decrease in neutrophil recruitment in the alveoli / decrease in neutrophil recruitment in the interstitium / reduction in mononuclear cell infiltration in the perivascular/peribronchiolar space / reduction of septal thickening in the alveoli: lung H&E histopathology score; for decrease in neutrophil recruitment in the alveoli / decrease in neutrophil recruitment in the interstitium / reduction in mononuclear cell infiltration in the perivascular/peribronchiolar space: FIG. 21; for reduction of septal thickening in the alveoli: FIG. 22
Experimental: Table 2 summarizes the groups tested in the LPS induced acute lung injury (ALI) model study in mice. [table] Briefly, C57Bl/6 7-8 week old mice were exposed to lipopolysaccharide (LPS) oral aspiration (5 mg/Kg). The animals were treated orally with either vehicle, M3 (50 mg/Kg, or MIN-102 at different doses 25 and 50 mg/Kg) bid from Day −1 to Day 2, 6-8 h apart and QD on Day 3 1 h before euthanasia. On Day 3 protein content, cytokine assessment and leukocyte count by FACS analysis were performed in the bronchoalveolar lavage fluid (BALF). The results are shown in FIGS. 11-20, and Tables 3 and 4. The lungs were collected, embedded and processed for H&E histology.

[2] = Unbound fraction in human plasma; assay type: in vitro ADME
[3] = Lung/blood distribution ratio in rat; assay type: in vivo; conditions: lung and blood
[4] = test system: Macrophages exposed to SARS-CoV-2; experiment: Cytokine production in macrophages in the presence of SARS-CoV-2 (Luminex); assay type: cell-based; conditions: macrophages exposed to SARS-CoV-2, supernatant 24 h post-infection
[5] = maximal over doses 25 and 50 mg/kg, BALF

In the case of `CC(=O)c1ccc(CCOc2ccc(CC3SC(=O)NC3=O)cc2)nc1` (stereo not shown) [Compound M3, 5-[[4-[2-[5-Acetylpyridin-2-yl]ethoxy]phenyl]methyl]-1,3-thiazolidine-2,4-dione], the “CD45+ % Decrease vs vehicle” value ([1]; 50 mg/kg PO BID) is reported as 67% and 67.35%, the “CD45+ Mean” value ([1]; 50 mg/kg PO BID) is reported as 317269 cells/ml BALF and the “IL-6 % Decrease vs vehicle” value ([1]; 50 mg/kg PO BID) is reported as 96.86%. The “IL-6 Mean” value ([1]; 50 mg/kg PO BID) was 15.29 pg/mL, the “IL-12p40 % Decrease vs vehicle” value ([1]; 50 mg/kg PO BID) was 86.71% and the “IL-12p40 Mean” value ([1]; 50 mg/kg PO BID) was 4.586 pg/mL. The “IP-10 % Decrease vs vehicle” value ([1]; 50 mg/kg PO BID) was 79.17%, the “IP-10 Mean” value ([1]; 50 mg/kg PO BID) was 1045 pg/mL and the “MIG % Decrease vs vehicle” value ([1]; 50 mg/kg PO BID) was 90.75%. For the same compound, the “MIG Mean” value ([1]; 50 mg/kg PO BID) was 256.2 pg/mL, the “Neutrophils % Decrease vs vehicle” value ([1]; 50 mg/kg PO BID) was 72% and 72.06% and the “Neutrophils Mean” value ([1]; 50 mg/kg PO BID) was 179793 cells/ml BALF. The “RANTES % Decrease vs vehicle” value ([1]; 50 mg/kg PO BID) was 93.19%, the “RANTES Mean” value ([1]; 50 mg/kg PO BID) was 3.838 pg/mL and the “T cells % Decrease vs vehicle” value ([1]; 50 mg/kg PO BID) was 74% and 74.14%. For the same compound, the “T cells Mean” value ([1]; 50 mg/kg PO BID) was 9554 cells/ml BALF, the “TNF % Decrease vs vehicle” value ([1]; 50 mg/kg PO BID) was 68.26% and the “TNF Mean” value ([1]; 50 mg/kg PO BID) was 10 pg/mL. The “Total Protein in BALF % Decrease vs vehicle” value ([1]; 50 mg/kg PO BID) was 63% and 63.24%, the “Total Protein in BALF Mean” value ([1]; 50 mg/kg PO BID) was 167 µg/mL and the “reduction of B cells” value ([1]; 50 mg/kg, BALF) was 52%. For the same compound, the “decrease in neutrophil recruitment in the alveoli” value [1] was 64%, the “decrease in neutrophil recruitment in the interstitium” value [1] was 62% and the “reduction in mononuclear cell infiltration in the perivascular/peribronchiolar space” value [1] was 40%. The “reduction of septal thickening in the alveoli” value [1] was 79%.
For `CC(O)c1ccc(CCOc2ccc(CC3SC(=O)NC3=O)cc2)nc1` (racemic) [MIN-102, 5-[[4-[2-[5-(1-hydroxyethyl)pyridin-2-yl]ethoxy]phenyl]methyl]-1,3-thiazolidine-2,4-dione hydrochloride], the “CD45+ % Decrease vs vehicle” value ([1]; 25 mg/kg PO BID) was 52.36%, the “CD45+ Mean” value ([1]; 25 mg/kg PO BID) was 462941 cells/ml BALF and the “IL-6 % Decrease vs vehicle” value ([1]; 25 mg/kg PO BID) was 76.17%. The “IL-6 Mean” value ([1]; 25 mg/kg PO BID) was 116.2 pg/mL, the “IL-12p40 % Decrease vs vehicle” value ([1]; 25 mg/kg PO BID) was 55.14% and the “IL-12p40 Mean” value ([1]; 25 mg/kg PO BID) was 15.48 pg/mL. The “IP-10 % Decrease vs vehicle” value ([1]; 25 mg/kg PO BID) was 47.55%, the “IP-10 Mean” value ([1]; 25 mg/kg PO BID) was 627.6 pg/mL and the “MIG % Decrease vs vehicle” value ([1]; 25 mg/kg PO BID) was 50.52%. For the same compound, the “MIG Mean” value ([1]; 25 mg/kg PO BID) was 1369 pg/mL, the “Neutrophils % Decrease vs vehicle” value ([1]; 25 mg/kg PO BID) was 56.41% and the “Neutrophils Mean” value ([1]; 25 mg/kg PO BID) was 280504 cells/ml BALF. For the same compound, the “RANTES % Decrease vs vehicle” value ([1]; 25 mg/kg PO BID) was 61.57%, the “RANTES Mean” value ([1]; 25 mg/kg PO BID) was 21.68 pg/mL and the “T cells % Decrease vs vehicle” value ([1]; 25 mg/kg PO BID) was 43.43%. The “T cells Mean” value ([1]; 25 mg/kg PO BID) was 20898 cells/ml BALF, the “TNF % Decrease vs vehicle” value ([1]; 25 mg/kg PO BID) was 59.19% and the “TNF Mean” value ([1]; 25 mg/kg PO BID) was 12.85 pg/mL. For the same compound, the “Total Protein in BALF % Decrease vs vehicle” value ([1]; 25 mg/kg PO BID) was 46.00%, the “Total Protein in BALF Mean” value ([1]; 25 mg/kg PO BID) was 245.3 µg/mL and the “CD45+ % Decrease vs vehicle” value ([1]; 50 mg/kg PO BID) was 49.83%. The “CD45+ Mean” value ([1]; 50 mg/kg PO BID) was 487506 cells/ml BALF, the “IL-6 % Decrease vs vehicle” value ([1]; 50 mg/kg PO BID) was 87.13% and the “IL-6 Mean” value ([1]; 50 mg/kg PO BID) was 62.78 pg/mL. The “IL-12p40 % Decrease vs vehicle” value ([1]; 50 mg/kg PO BID) was 71.41%, the “IL-12p40 Mean” value ([1]; 50 mg/kg PO BID) was 9.868 pg/mL and the “IP-10 % Decrease vs vehicle” value ([1]; 50 mg/kg PO BID) was 55.42%. The “IP-10 Mean” value ([1]; 50 mg/kg PO BID) was 731.5 pg/mL, the “MIG % Decrease vs vehicle” value ([1]; 50 mg/kg PO BID) was 73.18% and the “MIG Mean” value ([1]; 50 mg/kg PO BID) was 741.7 pg/mL. The “Neutrophils % Decrease vs vehicle” value ([1]; 50 mg/kg PO BID) was 57.85%, the “Neutrophils Mean” value ([1]; 50 mg/kg PO BID) was 271223 cells/ml BALF and the “RANTES % Decrease vs vehicle” value ([1]; 50 mg/kg PO BID) was 79.24%. For the same compound, the “RANTES Mean” value ([1]; 50 mg/kg PO BID) was 11.71 pg/mL, the “T cells % Decrease vs vehicle” value ([1]; 50 mg/kg PO BID) was 42.49% and the “T cells Mean” value ([1]; 50 mg/kg PO BID) was 21245 cells/ml BALF. The “TNF % Decrease vs vehicle” value ([1]; 50 mg/kg PO BID) was 68.26%, the “TNF Mean” value ([1]; 50 mg/kg PO BID) was 10 pg/mL and the “Total Protein in BALF % Decrease vs vehicle” value ([1]; 50 mg/kg PO BID) was 49.50%. The “Total Protein in BALF Mean” value ([1]; 50 mg/kg PO BID) was 229.4 µg/mL, the “decrease of total number of leukocytes (CD45 positive cells) vs vehicle group” value ([1]; in all doses (25 and 50 mg/kg), BALF) was 50% and the “decrease in neutrophil recruitment in the alveoli” value [1] was 53%. The “decrease in neutrophil recruitment in the interstitium” value [1] was 48%, the “reduction in mononuclear cell infiltration in the perivascular/peribronchiolar space” value [1] was 31% and the “reduction of septal thickening in the alveoli” value [1] was 43%. The “T cells, maximal reduction vs vehicle group” value [1, 5] was “around 47%”, the “neutrophils, maximal reduction vs vehicle group” value [1, 5] was “around 58%” and the “Unbound % in Plasma (human)” value [2] was 3.5%. The Kp [3] was 0.83, the “effect on IL2 secretion” value [4] was “No effect” and the “effect on IL7 secretion” value [4] was “No effect”. For the same compound, the “reduction of MIP1-α secretion” value [4] was 90%.
In the case of `CCc1ccc(CCOc2ccc(CC3SC(=O)NC3=O)cc2)nc1` (stereo not shown) [Pioglitazone, reference compound], the “Unbound % in Plasma (human)” value [2] is reported as 0.2% and the Kp [3] is reported as 0.3.
